Assay results published in US10730840B2, “Substituted tetrahydroisoquinoline ethylbenzamide anti-cancer agents” (Florida A&M University, priority 2017, dated 2020).
Converted amounts (≈) assume the structure as drawn. Where a name gives a salt, the structure may show the parent alone. Read-outs that look alike come from different tables or passages of the source.

Experiments:
[1] = tested on: Ishikawa (endometrial) cancer cell line; assay: CellTiter-Glo antiproliferative activity, Ishikawa cell line; assay type: cell-based, human; conditions: 72 h exposure; for IC50: Homo sapiens, Ishikawa
Text: Numerous substituted THIQs were systematically synthesized employing molecular design and structure activity relationship studies (Suresh et al., (2014) Lett. Drug Design & Discov. 11: 428-436; Gangapuram et al., (2014) J. Cancer Sci. Ther. 6: 161-169). The compounds' cytotoxic effects on MCF-7 (estrogen receptor positive breast cancer) cell lines, MDA-MB-231 (estrogen receptor negative breast cancer) cell lines and Ishikawa cell lines using CellTiter-Glo (CTG) luminescent cell viability essay were studied. The tests were done on different concentrations of the compounds ranging from 0.01 to 100,000 nM on 5000 MCF-7 cells/well, on 5000 MDA-MB-231 cells/well and on 5000 Ishikawa cells/well. Drug exposed cells were incubated at 37° C. for three days followed by CTG assay. Then IC50 values were generated from Graph Pad Prism 4. […]
(§1) The antiproliferative activities of substituted tetrahydroisoquinolines 2a-2m, 3a-3l and 4a-4f were evaluated according to the procedure reported previously (Crouch et al., (1993) J. Immunol. Methods 160: 81-88).
(§2) Human MCF-7 and MDA-MB-231 breast cancer cell lines were purchased from the NCI. The human Ishikawa endometrial cancer cell line was purchased from Sigma Aldrich. All three cell lines were cultured in phenol red-free RPMI-1640 (Hyclone) (500 mL) supplemented with L-glutamine-dipeptide (Hyclone) (5 mL), and 10% fetal bovine serum (Atlanta Biologicals) (50 mL).
(§3) The cell lines were cultured and treated with compounds under study including the standard TAM ranging from 0.01 nM to 100,000 nM concentration in the presence of 10 nM estradiol using the previous reported method (Suresh et al., (2014) Lett. Drug Des. Discov. 11: 428-436).
(§4) The amount of ATP is determined using a system based on luciferase and D-luciferin resulting in light generation.

[2] = tested on: MCF-7 (ER positive breast cancer cell line); assay: CellTiter-Glo antiproliferative activity, MCF-7 cell line; assay type: cell-based, human; conditions: for IC50: Homo sapiens, MCF7; for IC50 / IC50 MCF-7: 72 h exposure
Text: (§5) Numerous substituted THIQs were systematically synthesized employing molecular design and structure activity relationship studies (Suresh et al., (2014) Lett. Drug Design & Discov. 11: 428-436; Gangapuram et al., (2014) J. Cancer Sci. Ther. 6: 161-169). The compounds' cytotoxic effects on MCF-7 (estrogen receptor positive breast cancer) cell lines, MDA-MB-231 (estrogen receptor negative breast cancer) cell lines and Ishikawa cell lines using CellTiter-Glo (CTG) luminescent cell viability essay were studied. The tests were done on different concentrations of the compounds ranging from 0.01 to 100,000 nM on 5000 MCF-7 cells/well, on 5000 MDA-MB-231 cells/well and on 5000 Ishikawa cells/well. Drug exposed cells were incubated at 37° C. for three days followed by CTG assay. Then IC50 values were generated from Graph Pad Prism 4.
(§6) Chemistry: Several substituted tetrahydroisoquinolines 2d-2m, 3h, 3k, 3l, and 4a-4f were prepared according to three different procedures as shown in Schemes 1, 2 and 3 (FIGS. 2-4). […] The aminating agent 10 was prepared using a reported procedure (Tamura et al., (1972) J. Org. Chem. 40: 4133-4135). The amino salts of ring substituted 2-aminoisoquinolinium mesitylenesulfonates of general structure 11 used in the present study were prepared by the reaction of substituted isoquinolines and the aminating agent 10 as previously reported (Gangapuram et al., (2014) J. Cancer Sci. Ther. 6: 161-169). […] The aminating agent 13 was prepared using a reported procedure (Legault & Charette (2003) J. Org. Chem. 68: 7119-7122). The amino salts of ring substituted 2-aminoisoquinolinium compounds of general structure 14 were obtained with the reaction of the substituted isoquinolines and the aminating agent 13 in CH3CN heated at 50° C. for 24 hours. Without further purification, the salts were used to prepare the N-ylides by reaction with substituted acyl/sulfonyl chlorides. […] N-Oxidation of commercially available ring substituted THIQs followed by the reduction of the NO group using standard zinc/acetic acid led to the synthesis of N-amino THIQs.
as §1, §2, §3, §4

[3] = tested on: MDA-MB-231 (ER negative breast carcinoma cell line); assay: CellTiter-Glo antiproliferative activity, MDA-MB-231 cell line; assay type: cell-based, human; conditions: 72 h exposure; for IC50: Homo sapiens, MDA-MB-231
Text: as §5, §6, §1, §2, §3

[4] = Table 1, in the presence of 10 nM estradiol, read-out: IC50 Ishikawa
[5] = Table 1, in the presence of 10 nM estradiol, read-out: IC50 MCF-7
[6] = Table 1, in the presence of 10 nM estradiol

SMILES | IC50 [1, 4] | IC50 [2, 5] | IC50 [3, 6] | melting point | other results
COc1ccccc1C(=O)NN1CCc2ccc(O)cc2C1 [Compound 2f, N-(7-hydroxy-3,4-dihydroisoquinolin-2(1H)-yl)-2-methoxybenzamide] | > 29.8 µg/mL | > 29.8 µg/mL | > 29.8 µg/mL | 197.3 to 199.4 °C | –
COc1ccc(C(=O)NN2CCc3ccc(O)cc3C2)cc1 [Compound 2d, N-(7-hydroxy-3,4-dihydroisoquinolin-2(1H)-yl)-4-methoxybenzamide] | 0.99 µg/mL | > 29.8 µg/mL | 25.2 µg/mL | 192.5 to 194.3 °C | –
CCc1ccc(C(=O)NN2CCc3ccc(OS(N)(=O)=O)cc3C2)cc1 [Redda-GM-4-171, 2-(4-Ethylbenzamido)-1,2,3,4-tetrahydroisoquinolin-7-yl-sulfamate] | – | – | – | – | IC50 ([1]; Table 2, estradiol added, read-out: IC50 Ishikawa): 0.12 µg/mL (≈ 0.32 µM); IC50 ([2]; Table 2, estradiol added, read-out: IC50 MCF-7): 2.14 µg/mL (≈ 5.7 µM); IC50 ([3]; Table 2, estradiol added): 2.53 µg/mL (≈ 6.74 µM)
O=C(c1ccc(OCCN2CCCCC2)cc1)c1c(-c2ccc(O)cc2)sc2cc(O)ccc12 [Raloxifene-Hydrochloride, reference compound] | 10.5 µg/mL | 0.98 µg/mL | 11.2 µg/mL | – | –
CCc1ccc(C(=O)NN2CCc3ccc(C#N)cc3C2)cc1 [Compound 4d, N-(7-Cyano-3,4-dihydroisoquinolin-2(1H)-yl)-4-ethylbenzamide] | 0.9 µg/mL | 1.28 µg/mL | 1.76 µg/mL | – | IC50 ([1]; in the presence of 10 nM estradiol, read-out: IC50 against Ishikawa cell line): < 7.87 µg/mL; IC50 ([2]; in the presence of 10 nM estradiol, read-out: IC50 against MCF-7 cell line): 1.28 µg/mL; antiproliferative activity against MCF-7 cell line in words ([2]; based on IC50 value): moderate activity
Nc1ccc(C(=O)NN2CCc3ccc(Br)cc3C2)cc1 [Compound 2l, 4-Amino-N-(7-bromo-3,4-dihydroisoquinolin-2(1H)-yl) benzamide] | – | – | – | – | IC50 Ishikawa [1, 6]: 1.09 µg/mL; IC50 MCF-7 [2, 6]: 2.80 µg/mL; IC50 MDA-MB-231 [3, 6]: 9.86 µg/mL
CCc1ccc(C(=O)NN2CCc3c(O)cccc3C2)cc1 [Compound 3f, 4-Ethyl-N-(5-hydroxy-3,4-dihydroisoquinolin-2(1H)-yl) benzamide] | – | – | – | – | IC50 Ishikawa [1, 6]: 9.93 µg/mL; IC50 MCF-7 [2, 6]: 18.61 µg/mL; IC50 MDA-MB-231 [3, 6]: 15.61 µg/mL
CCc1ccccc1C(=O)NN1CCc2ccc(C#N)cc2C1 [Compound 4a, N-(7-Cyano-3,4-dihydroisoquinolin-2(1H)-yl)-2-ethylbenzamide] | > 30.5 µg/mL | 26.4 µg/mL | > 30.5 µg/mL | 162 to 167 °C | –
COc1cccc(C(=O)NN2CCc3ccc(O)cc3C2)c1 [Compound 2e, N-(7-hydroxy-3,4-dihydroisoquinolin-2(1H)-yl)-3-methoxybenzamide] | 0.31 µg/mL | 1.86 µg/mL | 1.71 µg/mL | 190.5 to 192.3 °C | –
CCc1ccc(C(=O)NN2CCc3cc(O)ccc3C2)cc1 [Compound 2h, 4-Ethyl-N-(6-hydroxy-3,4-dihydroisoquinolin-2(1H)-yl) benzamide] | – | – | – | – | IC50 Ishikawa [1, 6]: 22.38 µg/mL; IC50 MCF-7 [2, 6]: >29.64 µg/mL; IC50 MDA-MB-231 [3, 6]: >29.64 µg/mL
CCc1ccc(C(=O)NN2CCc3cccc(N)c3C2)cc1 [Compound 2k, N-(8-amino-3,4-dihydroisoquinolin-2(1H)-yl)-4-ethylbenzamide] | 0.6 µg/mL | 2.23 µg/mL | 16.8 µg/mL | 223.5 to 224.8 °C | –
